According to ChEMBL document CHEMBL4000174, “Synthesis and antitumor activity of novel substituted uracil-1'(N)-acetic acid ester derivatives of 20(S)-camptothecins” (Eur J Med Chem, 2017):
The source made the active and inactive calls. The rule behind the calls is not given here.

What was measured:
H22 [1] = test: Antitumor activity against mouse H22 cells implanted in Kunming mouse assessed as tumor growth inhibition at 40 mg/kg, ip administered on day 1 and day 5 relative to control relative to control; assay type: functional; conditions: read-out: TGI
HCT-8 = test: Antiproliferative activity against human HCT8 cells after 96 hrs by MTT assay; assay type: functional, cell-based; conditions: HCT-8, 96 h
BGC-823 [2] = test: Antiproliferative activity against human BGC823 cells after 96 hrs by MTT assay; assay type: functional, cell-based; conditions: BGC-823, 96 h
A549 [3] = test: Antiproliferative activity against human A549 cells after 96 hrs by MTT assay; assay type: functional, cell-based; conditions: A549, 96 h
A2780 = test: Antiproliferative activity against human A2780 cells after 96 hrs by MTT assay; assay type: functional, cell-based; conditions: A2780, 96 h
Bel-7402 [4] = test: Antiproliferative activity against human Bel7402 cells after 96 hrs by MTT assay; assay type: functional, cell-based; conditions: Bel-7402, 96 h
Mus musculus [5] = test: Toxicity in Kunming mouse implanted with mouse H22 cells assessed as body weight at 40 mg/kg, ip administered on day 1 and day 5 (reference value: 32.5 g); assay type: organism-based; conditions: in vivo
Mus musculus [6] = test: Toxicity in Kunming mouse implanted with mouse H22 cell assessed as survival at 40 mg/kg, ip administered on day 1 and day 5; assay type: organism-based; conditions: in vivo
Mus musculus [7] = test: Toxicity in Kunming mouse implanted with mouse H22 cells assessed as body weight at 100 mg/kg, ip administered once (reference value: 31.1 g); assay type: organism-based; conditions: in vivo
H22 [8] = test: Antitumor activity against mouse H22 cells implanted in Kunming mouse assessed as tumor growth inhibition at 60 mg/kg, ip administered twice relative to control; assay type: functional; conditions: read-out: TGI
Mus musculus [9] = test: Toxicity in Kunming mouse implanted with mouse H22 cells assessed as body weight at 60 mg/kg, ip administered twice (reference value: 31.1 g); assay type: organism-based; conditions: in vivo
H22 [10] = test: Antitumor activity against mouse H22 cells implanted in Kunming mouse assessed as tumor growth inhibition at 100 mg/kg, ip administered once relative to control; assay type: functional; conditions: read-out: TGI
A549 [11] = test: Cell cycle arrest in human A549 cells assessed as accumulation at G0/G1 phase at 75 nM after 24 hrs by propidium iodide staining based flow cytometry (reference value: 58.84%); assay type: functional
A549 [12] = test: Cell cycle arrest in human A549 cells assessed as accumulation at G2/M phase at 25 nM after 24 hrs by propidium iodide staining based flow cytometry (reference value: 8.36%); assay type: functional
Mus musculus [13] = test: Toxicity in BALB/c nude mouse xenografted with human Bel7402 cells assessed as body weight at 5 mg/kg, ip administered once in a week for two weeks starting from 6 days post tumor transplantation measured every 3 days for 21 days (reference value: 14.5 g); assay type: organism-based; conditions: in vivo, 504 h
A549 [14] = test: Cell cycle arrest in human A549 cells assessed as accumulation at G0/G1 phase at 8 nM after 24 hrs by propidium iodide staining based flow cytometry (reference value: 58.84%); assay type: functional
A549 [15] = test: Cell cycle arrest in human A549 cells assessed as accumulation at S phase at 75 nM after 24 hrs by propidium iodide staining based flow cytometry (reference value: 32.80%); assay type: functional
A549 [16] = test: Cell cycle arrest in human A549 cells assessed as accumulation at G2/M phase at 8 nM after 24 hrs by propidium iodide staining based flow cytometry (reference value: 8.36%); assay type: functional
A549 [17] = test: Cell cycle arrest in human A549 cells assessed as accumulation at G0/G1 phase at 25 nM after 24 hrs by propidium iodide staining based flow cytometry (reference value: 58.84%); assay type: functional
Bel-7402 [18] = test: Antitumor activity against human Bel7402 cells xenografted in BALB/c nude mouse assessed as tumor growth inhibition at 5 mg/kg, ip administered once in a week for two weeks starting from 6 days post tumor transplantation measured 27 to 30 days post tumor transplantation relative to control; assay type: functional; conditions: Bel-7402, ip, read-out: TGI
Mus musculus [19] = test: Antitumor activity in BALB/c nude mouse xenografted with human Bel7402 cells assessed as tumor volume at 5 mg/kg, ip administered once in a week for two weeks starting from 6 days post tumor transplantation measured every 3 days for 21 days (reference value: […]); conditions: in vivo, 504 h
A549 [20] = test: Cell cycle arrest in human A549 cells assessed as accumulation at S phase at 8 nM after 24 hrs by propidium iodide staining based flow cytometry (reference value: 32.80%); assay type: functional
Escherichia coli = test: Inhibition of Escherichia coli topoisomerase 1-mediated relaxation of supercoiled Pcmv-6 plasmid DNA at 1 to 50 uM after 30 mins by ethidium bromide staining based agarose gel electrophoretic analysis
A549 [21] = test: Cell cycle arrest in human A549 cells assessed as accumulation at S phase at 25 nM after 24 hrs by propidium iodide staining based flow cytometry (reference value: 32.80%); assay type: functional
A549 [22] = test: Cell cycle arrest in human A549 cells assessed as accumulation at G2/M phase at 75 nM after 24 hrs by propidium iodide staining based flow cytometry (reference value: 8.36%); assay type: functional
Bel-7402 [23] = test: Antitumor activity against human Bel7402 cells xenografted in BALB/c nude mouse assessed as tumor volume at 5 mg/kg, ip administered once in a week for two weeks starting from 6 days post tumor transplantation measured 27 to 30 days post tumor transplantation relative to control; assay type: functional
Mus musculus [24] = test: Toxicity in BALB/c nude mouse xenografted with human BGC823 cells assessed as body weight at 50 mg/kg, ip administered once in a week for two weeks starting from 6 days post tumor transplantation and measured every 3 days during compound dosing for 15 days (reference value: 23.6 g); assay type: organism-based; conditions: in vivo, 360 h
BGC-823 [25] = test: Antitumor activity against human BGC823 cells xenografted in BALB/c nude mouse assessed as tumor growth inhibition at 50 mg/kg, ip administered once in a week for two weeks starting from 6 days post tumor transplantation measured 27 to 30 days post tumor transplantation relative to control; assay type: functional; conditions: BGC-823, ip, read-out: TGI
Mus musculus [26] = test: Toxicity in BALB/c nude mouse xenografted with human BGC823 cells assessed as mouse survival at 50 mg/kg, ip administered once in a week for two weeks starting from 6 days post tumor transplantation; assay type: organism-based; conditions: in vivo, 144 h
Mus musculus [27] = test: Toxicity in Kunming mouse implanted with mouse H22 cells assessed as body weight at 24 mg/kg, ip administered once in every three days totally for 3 times (reference value: 32.5 g); assay type: organism-based; conditions: in vivo
H22 [28] = test: Antitumor activity against mouse H22 cells implanted in Kunming mouse assessed as tumor growth inhibition at 24 mg/kg, ip administered once in every 3 days totally for 3 times relative to control; assay type: functional; conditions: 72 h, read-out: TGI
H22 [29] = test: Antitumor activity against mouse H22 cells implanted in Kunming mouse assessed as tumor growth inhibition at 100 mg/kg, ip administered twice relative to control; conditions: read-out: TGI

IC50 (HCT-8) [nM] | IC50 (BGC-823 [2]) [nM] | IC50 (A549 [3]) [nM] | IC50 (A2780) [nM] | IC50 (Bel-7402 [4]) [nM] | SMILES | further results
957 | 7890 | 6400 | 750 | 3280 | CC[C@@]1(OC(=O)Cn2cc(I)c(=O)[nH]c2=O)C(=O)OCc2c1cc1n(c2=O)Cc2cc3ccccc3nc2-1 | –
109 | 64 | 126 | 68 | 86 | CC[C@@]1(OC(=O)Cn2cc(F)c(=O)[nH]c2=O)C(=O)OCc2c1cc1n(c2=O)Cc2cc3ccccc3nc2-1 | –
14 | 17 | 46 | 160 | 18 | CC[C@@]1(OC(=O)Cn2ccc(=O)[nH]c2=O)C(=O)OCc2c1cc1n(c2=O)Cc2cc3ccccc3nc2-1 | –
586 | 2570 | 710 | 669 | 4510 | CCc1c2c(nc3ccccc13)-c1cc3c(c(=O)n1C2)COC(=O)[C@@]3(CC)OC(=O)Cn1cc(I)c(=O)[nH]c1=O | –
13 | 16 | 54 | 110 | 17 | CC[C@@]1(OC(=O)Cn2cc(Cl)c(=O)[nH]c2=O)C(=O)OCc2c1cc1n(c2=O)Cc2cc3ccccc3nc2-1 | –
14 | 16 | 117 | 200 | 13 | CC[C@@]1(OC(=O)Cn2cc(I)c(=O)[nH]c2=O)C(=O)OCc2c1cc1n(c2=O)Cc2cc3c([N+](=O)[O-])cccc3nc2-1 | –
13 | 15 | 90 | 183 | 13 | CC[C@@]1(OC(=O)Cn2cc(Br)c(=O)[nH]c2=O)C(=O)OCc2c1cc1n(c2=O)Cc2cc3c([N+](=O)[O-])cccc3nc2-1 | –

More lines, now with the values behind:

SMILES | IC50 (HCT-8) [nM] | IC50 (BGC-823 [2]) [nM] | IC50 (A549 [3]) [nM] | IC50 (A2780) [nM] | IC50 (Bel-7402 [4]) [nM] | further results
CC[C@@]1(OC(=O)Cn2ccc(=O)[nH]c2=O)C(=O)OCc2c1cc1n(c2=O)Cc2cc3c([N+](=O)[O-])cccc3nc2-1 | 14 | 17 | 51 | 73 | 18 | inhibition in vivo at 40 mg/kg (H22 [1]): 11%; Activity (Mus musculus [5]): 32 g; Activity (Mus musculus [6]): Non-Toxic
CCc1c2c(nc3ccccc13)-c1cc3c(c(=O)n1C2)COC(=O)[C@@]3(CC)OC(=O)Cn1ccc(=O)[nH]c1=O | 2 | 17 | 65 | 86 | 14 | –
CCc1c2c(nc3ccccc13)-c1cc3c(c(=O)n1C2)COC(=O)[C@@]3(CC)OC(=O)Cn1cc(Cl)c(=O)[nH]c1=O | 2 | 17 | 38 | 670 | 12 | inhibition in vivo at 40 mg/kg (H22 [1]): 46.2%; Activity (Mus musculus [7]): 25.2 g; inhibition in vivo at 60 mg/kg (H22 [8]): 76.6%; Activity (Mus musculus [5]): 27 g; Activity (Mus musculus [9]): 26.2 g; inhibition in vivo at 100 mg/kg (H22 [10]): 58.7%; Activity (Mus musculus [6]): Non-Toxic
CC[C@@]1(O)C(=O)OCc2c1cc1n(c2=O)Cc2cc3ccccc3nc2-1 [CAMPTOTHECIN] | 24 | 57 | 6 | 29 | 14 | –
CC[C@@]1(O)C(=O)OCc2c1cc1n(c2=O)Cc2cc3c(CN(C)C)c(O)ccc3nc2-1 [TOPOTECAN] | 22 | 78 | 7 | 78 | 100 | Activity (A549 [11]): 43.81%; Activity (A549 [12]): 12.83%; Activity (Mus musculus [13]): Non-Toxic; Activity (A549 [14]): 53.22%; Activity (A549 [15]): 23.36%; Activity (A549 [16]): 11.71%; Activity (A549 [17]): 55.73%; inhibition in vivo at 5 mg/kg (Bel-7402 [18]): 45.5%; tumor volume (Mus musculus [19]): 302 mm³; Activity (A549 [20]): 35.07%; inhibition (Escherichia coli): Active; Activity (A549 [21]): 31.44%; Activity (A549 [22]): 32.83%; T/C (Bel-7402 [23]): 58.8%
CCc1c2c(nc3ccccc13)-c1cc3c(c(=O)n1C2)COC(=O)[C@@]3(CC)OC(=O)Cn1cc(Br)c(=O)[nH]c1=O | < 2 | 31 | 88 | 182 | 12 | –
CC[C@@]1(OC(=O)Cn2cc(F)c(=O)[nH]c2=O)C(=O)OCc2c1cc1n(c2=O)Cc2cc3c([N+](=O)[O-])cccc3nc2-1 | 13 | 17 | 81 | 115 | 16 | –
CC[C@@]1(OC(=O)Cn2cc(Br)c(=O)[nH]c2=O)C(=O)OCc2c1cc1n(c2=O)Cc2cc3ccccc3nc2-1 | 6 | 16 | 48 | 160 | 12 | inhibition in vivo at 40 mg/kg (H22 [1]): 6.39%; Activity (Mus musculus [5]): 32.1 g; Activity (Mus musculus [6]): Non-Toxic
CC[C@@]1(OC(=O)Cn2cc(Cl)c(=O)[nH]c2=O)C(=O)OCc2c1cc1n(c2=O)Cc2cc3c([N+](=O)[O-])cccc3nc2-1 | 13 | 17 | 75 | 221 | 16 | –
CCc1c2c(nc3ccc(OC(=O)N4CCC(N5CCCCC5)CC4)cc13)-c1cc3c(c(=O)n1C2)COC(=O)[C@]3(O)CC [IRINOTECAN] | – | – | – | – | – | Activity (Mus musculus [24]): 20.5 g; inhibition in vivo at 50 mg/kg (BGC-823 [25]): 94.1%; Activity (Mus musculus [26]): Non-Toxic
CC(=O)O[C@H]1C(=O)[C@@]2(C)[C@H]([C@H](OC(=O)c3ccccc3)[C@]3(O)C[C@H](OC(=O)[C@H](O)[C@@H](NC(=O)c4ccccc4)c4ccccc4)C(C)=C1C3(C)C)[C@]1(OC(C)=O)CO[C@@H]1C[C@@H]2O [PACLITAXEL] | – | – | – | – | – | Activity (Mus musculus [27]): 18.9 g; inhibition in vivo at 24 mg/kg (H22 [28]): 73.8%
O=P1(N(CCCl)CCCl)NCCCO1 (stereo not drawn) [CYCLOPHOSPHAMIDE ANHYDROUS] | – | – | – | – | – | inhibition in vivo at 100 mg/kg (H22 [29]): 93.7%
